Experimental data taken from patent US7838543B2, “MCH receptor antagonists” (Eli Lilly and Company, priority 2005, dated 2010).
pKi: −log10 of the molar value. Like-named read-outs stand apart in the source and are kept apart here.

Experiments:
human MCHR1 = biological target: T1, human MCHR1 (Homo sapiens, UniProt Q99705); test: 125I-MCH competitive binding assay with clone 43 membranes; conditions: Ki from IC50 by Cheng-Prusoff; for pKi: read-out: Average MCHR1 Ki
T1 construct: The full-length cDNA for human MCHR1 was cloned from a human adult brain cDNA library; expressed in transfected cells; host or cells: AV12 cells previously transfected with Galpha15
Experimental: The full-length cDNA for human MCHR1 was cloned from a human adult brain cDNA library (Edge Biosystems, Cat. 38356) by standard polymerase chain reaction (PCR) methodology employing the following primers: sense, 5′-GCCACCATGGACCT GGAAGCCTCGCTGC-3′; anti-sense, 5′-[…]-3′. The PCR reaction was performed in a final volume of 50 μl containing 5 μl of a 10× stock solution of PCR buffer, 1 μl of 10 mM dNTP mixture (200 μM final), 2 μl of 50 mM Mg(SO4) (2 mM final), 0.5 μl of 20 μM solutions of each primer (0.2 μM final), 5 μl of template cDNA containing 0.5 ng DNA, 0.5 μl of Platinum Taq High Fidelity DNA polymerase (Gibco Life Technologies) and […] of H2O. PCR amplification was performed on a Perkin Elmer 9600 thermocycler. After denaturation for 90 sec at 94° C., the amplification sequence consisting of 94° C. for 25 sec, 55° C. for 25 sec and 72° C. for 2 min was repeated 30 times, followed by a final elongation step at 72° C. for 10 min. The desired PCR product (1.1 Kb) was confirmed by agarose gel electrophoresis and the band was extracted from the gel by Geneclean (Bio101) following the manufacturer's instructions. Following extraction, the cDNA fragment was cloned into pCR2.1-TOPO plasmid (Invitrogen Corp) to confirm the identity and sequence.
In order to generate cell lines stably expressing MCHR1, the insert was then subcloned into the Xba I and Not I sites of pcDNA(+)-3.1-neomycin (Invitrogen). After purification by Qiagen Maxi-prep kit (QIAGEN, Inc.), the plasmid was transfected by Fugene 6 (Roche Applied Science) into AV12 cells that had been previously transfected with the promiscuous G protein Gα15. The transfected cells were selected by G418 (800 μg/ml) for 10-14 days and single colonies were isolated from culture plates. The G418-resistant colonies were further selected for MCHR1 expression by measuring MCH-stimulated Ca^2+ transients with a fluorometric imaging plate reader (FLIPR, Molecular Devices).
Both the ^125I-MCH binding and functional GTPγ^35S binding assays employed membranes isolated from a clone designated as clone 43. Typically, cells from 20 confluent T225 flasks were processed by washing the monolayers in cold phosphate-buffered saline (PBS), scraping the cells into same and re-suspending the cell pellet in 35 ml of 250 mM Sucrose, 50 mM HEPES, pH 7.5, 1 mM MgCl2, 24 μg/ml DNase I, and protease inhibitors (1 Complete® tablet, per 50 ml of buffer prepared, Roche Diagnostics). […]
Binding of compounds to MCHR1 was assessed in a competitive binding assay employing ^125I-MCH, compound and clone 43 membranes. […] Non-specific binding is assessed in the presence of 0.1 μM unlabeled MCH. Bound ^125I-MCH is determined by placing sealed plates in a Microbeta Trilux (Perkin Elmer Life and Analytical Sciences Inc) and counting after a 12 hr delay. […]

[1] = tested on: diet-induced obese male Long-Evans rats; test: 3 day body weight change in diet-induced obese rats after oral dosing; type: in vivo, rat; conditions: 10 mg/kg oral once a day for 3 days, 3 day cumulative, relative to vehicle control
Experimental: Vehicle consisted of 1% CMC and 0.25% PS-80 in water.
Animals were individually housed in a temperature regulated room (24° C.) with a reverse 12 hour light/dark cycle (dark 10:00/22:00). Water and food (Teklad 95217, Harlan, Wis.) were available ad libitum. Compounds were dosed orally once a day before onset of dark for 3 days. Daily food intake and body weight change were measured for the 3 day period.

T1 sequence (Q99705 whole entry): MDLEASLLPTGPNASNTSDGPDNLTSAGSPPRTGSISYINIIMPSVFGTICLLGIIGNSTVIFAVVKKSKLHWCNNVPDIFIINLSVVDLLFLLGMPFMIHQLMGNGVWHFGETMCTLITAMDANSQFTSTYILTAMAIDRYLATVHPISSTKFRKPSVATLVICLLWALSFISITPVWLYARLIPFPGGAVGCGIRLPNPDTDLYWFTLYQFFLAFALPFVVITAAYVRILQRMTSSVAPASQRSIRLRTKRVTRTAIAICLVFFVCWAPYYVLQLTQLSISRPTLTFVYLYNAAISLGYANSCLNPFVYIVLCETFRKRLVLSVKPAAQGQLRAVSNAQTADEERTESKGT

Compound	pKi (human MCHR1)	Body weight reduction @ 10 mg/Kg versus vehicle control. Data expressed in grams. [1] [grams]	Ki (human MCHR1; Average MCHR1 Ki (nM)) [nM]
CN1CCC(CN(C)c2nc3cc(NC(=O)c4ccc(-c5ccc(F)cc5)cc4)ccc3o2)C1 (single isomer, unassigned) [Example 34, 4′-Fluoro-biphenyl-4-carboxylic acid {2-[methyl-(1-methyl-pyrrolidin-3-ylmethyl)-amino]-benzooxazol-5-yl}-amide]	8.06	5.8	–
CN1CCC(N(C)c2nc3ccc(NC(=O)c4ccc(-c5ccc(F)cc5)cc4)cc3s2)C1 (single isomer, unassigned) [Example 106, 4′-Fluoro-biphenyl-4-carboxylic Acid {2-[methyl-(1-methyl-pyrrolidin-3-yl)-amino]-benzothiazol-6-yl}-amide]	7.78	8.4	–
CN1CCC(N(C)c2nc3ccc(NC(=O)c4ccc(-c5ccc(F)cc5)cc4)cc3s2)C1 (single isomer, unassigned) [Example 107, 4′-Fluoro-biphenyl-4-carboxylic Acid {2-[methyl-(1-methyl-pyrrolidin-3-yl)-amino]-benzothiazol-6-yl}-amide]	7.82	7.1	–
CN1CCC(N(C)c2nc3cc(NC(=O)c4ccc(-c5ccc(F)cc5Cl)cc4)ccc3o2)CC1.Cl [Example 157, 2′-Chloro-4′-fluoro-biphenyl-4-carboxylic acid {2-[methyl-(1-methyl-piperidinyl)-amino]-benzooxazol-5-yl}-amide Hydrochloride]	–	18	7.5
